Data as given in patent US4296233A, “Conjugate of amino sugar-steroid hormone” (Kureha Kagaku Kogyo Kabushiki Kaisha, priority 1978, dated 1981).
≈ marks a conversion by molar mass, not a printed value. Where “and” joins values, the source holds several entries; their conditions need not be identical. Equal entries are not always repeated. Where two headings read alike, the source gives them in different places.

Legend:
[1] = Solubility of the conjugate in water; type: physicochemical; details: compared with conjugate at 3-position in Example 1
[2] = Solubility in a mixed solvent of 98 vol.% of water and 2 vol.% of ethanol (method of Example 1); type: physicochemical; details: for solubility: water/ethanol 98:2, organic solvent or mixture
Procedure: The conjugate is dissolved at 4.39×10^-5 mole/liter (30 mg/liter) in a mixed solvent of 98 vol.% of water and 2 vol.% of ethanol.
Solubility of dehydroepiandrosterone in the same mixed solvent measured by absorbance at 235 mμ is 0.24×10^-5 mole/liter.

[3] = tested on: antibody which is active to the ketone group at 17-position of dehydroepiandrosterone; experiment: Competitive immunoassay with tritium-labelled dehydroepiandrosterone bound to antibody; type: binding; details: FIG. 1, curves A and B
Procedure: In order to confirm the presence of C-D complex combined to AP, the combined product was analyzed by a competitive immunoassay method described in Seikagaku Jikken Koza (Biochemical Experiment Hormones (First) Page 217 to 252 (by Nippon Seikagaku Kai) (published by Tokyo Kagaku Dojin in 1977).
Dehydroepiandrosterone labelled by tritium (^3 H) was bound to the antibody which is active to the ketone group at 17-position of dehydroepiandrosterone. The combined product or dehydroepiandrosterone was added to the system of the antibody and the labelled compound to measure the amount of free ^3 H-dehydroepiandrosterone release from the system.

[4] = mixed solvent of 98 vol.% of water and 2 vol.% of ethanol, read-out: Solubility

## C[C@]12CC[C@H]3[C@@H](CC=C4C[C@@H](O)CC[C@@]43C)[C@@H]1CC[C@@H]2OC(=O)COC(=O)[C@H]1O[C@@H](O[C@H]2[C@@H](O)[C@@H](CO)OC(O)[C@@H]2N)[C@H](O)[C@@H](O)[C@@H]1O (mixture of isomers) [Example 3, Conjugate of dehydroepiandrosterone (hereinafter referring as to DHS) and chondrosine at 17-position with a binding agent of bromoacetyl bromide]
[1]
  solubility of the conjugate in water: substantially same with that of the conjugate at 3-position in Example 1

## C[C@]12CCC(OC(=O)[C@H]3OC(O)[C@H](N)[C@@H](O)[C@@H]3O)CC1=CC[C@@H]1[C@@H]2CC[C@]2(C)C(=O)CC[C@@H]12 (mixture of isomers) [Example 4, Conjugate of DHS and 2-amino-2-deoxy-α-D-glucuronic acid]
[2]; [4]
  solubility: 40.2 µM

## C[C@]12CC[C@H](OC(=O)COC(=O)[C@H]3O[C@@H](O[C@H]4[C@@H](O)[C@@H](CO)OC(O)[C@@H]4N)[C@H](O)[C@@H](O)[C@@H]3O)CC1=CC[C@@H]1[C@@H]2CC[C@]2(C)C(=O)CC[C@@H]12 (stereo partly drawn) [Example 1, conjugate of 3β-hydroxy-5-androsten-17-one(dehydroepiandrosterone) at 3-position and 2-amino-2-deoxy-3-O-β-glucopyranurosyl-D-galactose (chondrosine) at 6-position with a binding agent of bromoacetyl bromide]
[2]; versus dehydroepiandrosterone, same mixed solvent
  solubility of the conjugate relative to the non-conjugate dehydroepiandrosterone: more than 18 times
[2]; [4]
  solubility: 43.9 µM and 30 µg/mL

## C[C@]12CC[C@@H]3c4ccc(O)cc4CC[C@H]3[C@@H]1CC[C@@H]2OC(=O)COC(=O)[C@H]1O[C@@H](O[C@H]2[C@@H](O)[C@@H](CO)OC(O)[C@@H]2N)[C@H](O)[C@@H](O)[C@@H]1O (stereo partly drawn) [Example 2, conjugate of 1,3,5(10)-estratriene-3,17β-diol (estradiol) and chondrosine at 17-position with a binding agent of bromoacetyl bromide]
[2]; versus estradiol, method of Example 1
  solubility of the product relative to that of estradiol: about 20 times
[2]; [4]
  solubility: 65 µM

## C[C@]12CC[C@H](O)CC1=CC[C@@H]1[C@@H]2CC[C@]2(C)C(=O)CC[C@@H]12 [dehydroepiandrosterone, 3β-hydroxy-5-androsten-17-one, reference compound]
[3]
  amount of free ^3 H-dehydroepiandrosterone released / binding to the antibody: the amount of free ^3 H-dehydroepiandrosterone was increased by the addition of the combined product or dehydroepiandrosterone whereby the their binding to the antibody is found
[2]; same mixed solvent, measured by absorbance at 235 mμ, read-out: Solubility of dehydroepiandrosterone
  solubility: 2.4 µM (≈ 0.692 µg/mL)
